From patent publication US20170304175A1, “COMPOSITION FOR INDUCING FACILITATION OF CELL REJUVENATION COMPRISING GENISTEIN OR EPIGALLOCATECHIN GALLATE” (AMOREPACIFIC CORPORATION, priority 2014, published 2017)

System: melanocytes
Test: Observation of phenotype of melanocytes with an optical microscope
Assay type: cell-based, Human
Settings: long-term exposure (1 μM in medium from passage 7 to passage 11/12), FIGS. 4A-4B
Experimental: Human primary melanocytes (Life Technologies, CA, USA) were cultured in a M-254 medium (Gibco BRL, NY, USA) supplemented with a human melanocyte growth supplement (HMGS; Gibco BRL, NY, USA) in a 5% CO2 incubator at […] on a 100-mm culture plate while replacing the medium every other day until the cells occupy 80% of the plate area and then subcultured on another 100-mm culture plate at a ratio of 1:4.
The melanocytes first placed on the 100-mm culture plate were considered as passage 1 (PA1) and subculturing was performed 11 times (PA12).
As a control group, melanocytes were subcultured to passage 11 and passage 12 without any treatment, and as a test group, the cells were subcultured under the same environment as the control group until passage 6, and then subcultured from passage 7 to passage 11 and passage 12 in a medium containing 1 μM genistein or epigallocatechin gallate (EGCG).

SMILES | phenotype of melanocytes of the late cell line
O=C(O[C@@H]1Cc2c(O)cc(O)cc2O[C@@H]1c1cc(O)c(O)c(O)c1)c1cc(O)c(O)c(O)c1 [epigallocatechin gallate (EGCG), epigallocatechin gallate] | recovered similarly to the cells of the early stage of subculturing
O=c1c(-c2ccc(O)cc2)coc2cc(O)cc(O)c12 [genistein] | recovered similarly to the cells of the early stage of subculturing
